{"source": "paper PMC5527309", "about": "“Curative Treatment of Severe Gram-Negative Bacterial Infections by a New Class of Antibiotics Targeting LpxC” (mBio, 2017)", "key": {"E. coli": {"test_system": "E. coli", "assay": "microbe, parasite or virus in culture", "format": "cell-based, Escherichia coli", "conditions": "for MIC: read-out: MIC against E. coli"}, "OF-1 female mice": {"test_system": "OF-1 female mice", "assay": "Tolerability study, 5-day intravenous regimen", "conditions": "mouse"}, "[1]": {"assay": "In vivo pharmacokinetics, single intravenous dose", "conditions": "for half-life: female, OF-1, mouse, plasma, iv"}, "Y. pestis [2]": {"test_system": "Y. pestis", "conditions": "mouse, in vivo"}, "[3]": {"assay": "Microsomal stability analysis", "conditions": "mouse, liver microsomes, pH 7.4"}, "Y. pestis CO92": {"test_system": "Y. pestis CO92", "format": "cell-based, Yersinia pestis"}, "K. pneumoniae": {"test_system": "K. pneumoniae", "assay": "microbe, parasite or virus in culture", "format": "cell-based, Klebsiella pneumoniae"}, "P. aeruginosa": {"test_system": "P. aeruginosa", "assay": "microbe, parasite or virus in culture", "format": "cell-based, Pseudomonas aeruginosa"}, "S. marcescens": {"test_system": "S. marcescens", "assay": "microbe, parasite or virus in culture", "format": "cell-based, Serratia marcescens"}, "Yersinia spp.": {"test_system": "Yersinia spp.", "assay": "microbe, parasite or virus in culture", "format": "cell-based, Y. enterocolitica and Y. pseudotuberculosis"}, "M. morganii": {"test_system": "M. morganii", "assay": "microbe, parasite or virus in culture", "format": "cell-based, Morganella morganii"}, "C. koseri": {"test_system": "C. koseri", "assay": "microbe, parasite or virus in culture", "format": "cell-based, Citrobacter koseri"}, "Enterobacter spp.": {"test_system": "Enterobacter spp.", "assay": "microbe, parasite or virus in culture", "format": "cell-based"}, "C. freundii": {"test_system": "C. freundii", "assay": "microbe, parasite or virus in culture", "format": "cell-based, Citrobacter freundii"}, "Shigella spp.": {"test_system": "Shigella spp.", "assay": "microbe, parasite or virus in culture", "format": "cell-based"}, "A. baumannii": {"test_system": "A. baumannii", "assay": "microbe, parasite or virus in culture", "format": "cell-based, Acinetobacter baumannii"}, "Salmonella spp": {"test_system": "Salmonella spp", "assay": "microbe, parasite or virus in culture", "format": "cell-based, Salmonella enterica"}, "P. mirabilis": {"test_system": "P. mirabilis", "assay": "microbe, parasite or virus in culture", "format": "cell-based, Proteus mirabilis"}, "Enterobacteriaceae": {"test_system": "Enterobacteriaceae", "assay": "organism not typed", "format": "cell-based"}, "Y. pestis [4]": {"test_system": "Y. pestis", "conditions": "cited from earlier work"}}, "note": "Where two headings read alike, the source gives them in different places."}
{"smiles": "CC(O)(C(F)F)C(NC(=O)c1ccc(C#CC#Cc2ccc(N)cc2)cc1)C(=O)NO", "note": "(stereo not shown) [LPC-058]", "values": [{"measurement": "MIC", "setting": "E. coli; Escherichia coli", "value": 0.025, "unit": "µg/mL"}, {"measurement": "renal function (blood urea nitrogen) and hepatic function", "setting": "OF-1 female mice; 10 mg/kg q8h, 5 days", "value": "normal"}, {"measurement": "tissue damage", "setting": "OF-1 female mice; 10 mg/kg q8h, 5 days", "value": "no tissue damage was detected"}, {"measurement": "histology (hematoxylin-eosin, 5-µm sections)", "setting": "OF-1 female mice; 40 mg/kg q12h, 5 days", "value": "accumulation of polymorphonuclear cells in the lung and large intestine"}, {"measurement": "liver toxicity (blood alanine aminotransferase level)", "setting": "OF-1 female mice; 40 mg/kg q12h, 5 days", "value": "liver toxicity"}, {"measurement": "plasma protein levels at the end of the 5-day regimen", "setting": "OF-1 female mice; 5-day regimen", "value": "Low plasma protein levels"}, {"measurement": "appearance of diarrhea after the first injection", "setting": "OF-1 female mice; 5-day regimen, regardless of regimen (10 mg/kg q8h, 20 mg/kg q12h, 40 mg/kg q12h)", "value": 3, "unit": "days"}, {"measurement": "AUC greater than AUC of LPC-069", "setting": "[1]; LPC-058 single dose 20 mg/kg versus LPC-069 single dose 40 mg/kg, mouse", "value": "approximately 10 fold"}, {"measurement": "half-life", "setting": "[1]; 20 mg/kg", "value": 53, "unit": "min"}, {"measurement": "tissue distribution volume", "setting": "[1]; mouse, single intravenous dose of 20 mg/kg", "value": 1.1, "unit": "L/kg"}, {"measurement": "colonization of the lymph nodes, spleen, and blood relative to nontreated controls", "setting": "Y. pestis [2]; iv, 10 mg/kg", "value": "significantly (P < 0.02) lower colonization"}, {"measurement": "survival rate", "setting": "Y. pestis [2]; iv, 10 mg/kg", "value": "≥ 80", "unit": "%"}, {"measurement": "half-life at 1 µM", "setting": "[3]", "value": 95, "unit": "min"}, {"measurement": "microsomal CLint at 1 µM", "setting": "[3]", "value": 24, "unit": "µL/min/mg"}, {"measurement": "type of antibacterial effect (kill curve)", "setting": "Y. pestis CO92", "value": "bacteriostatic effect"}]}
{"smiles": "CC(O)(C(F)F)C(NC(=O)c1ccc(C#Cc2ccc(CN3CCOCC3)cc2)cc1)C(=O)NO", "note": "(stereo not shown) [LPC-069]", "values": [{"measurement": "MIC Range", "setting": "K. pneumoniae", "value": "0.2 to 0.8", "unit": "µg/mL"}, {"measurement": "MIC50", "setting": "K. pneumoniae; Klebsiella pneumoniae", "value": 0.4, "unit": "µg/mL"}, {"measurement": "MIC90", "setting": "K. pneumoniae; Klebsiella pneumoniae", "value": 0.8, "unit": "µg/mL"}, {"measurement": "MIC90", "setting": "P. aeruginosa", "value": 3.2, "unit": "µg/mL"}, {"measurement": "MIC Range", "setting": "P. aeruginosa", "value": "0.2 to 3.2", "unit": "µg/mL"}, {"measurement": "more active than ceftazidime-avibactam", "setting": "P. aeruginosa", "value": "4- to 8 fold"}, {"measurement": "MIC50", "setting": "P. aeruginosa; Pseudomonas aeruginosa", "value": 1.6, "unit": "µg/mL"}, {"measurement": "MIC90", "setting": "P. aeruginosa; Pseudomonas aeruginosa", "value": 3.2, "unit": "µg/mL"}, {"measurement": "MIC Range", "setting": "E. coli", "value": "0.05 to 0.4", "unit": "µg/mL"}, {"measurement": "MIC50", "setting": "E. coli; Escherichia coli", "value": 0.1, "unit": "µg/mL"}, {"measurement": "MIC90", "setting": "E. coli; Escherichia coli", "value": 0.2, "unit": "µg/mL"}, {"measurement": "MIC", "setting": "E. coli; Escherichia coli", "value": 0.1, "unit": "µg/mL"}, {"measurement": "MIC Range", "setting": "S. marcescens", "value": "0.1 to 0.4", "unit": "µg/mL"}, {"measurement": "MIC50", "setting": "S. marcescens; Serratia marcescens", "value": 0.2, "unit": "µg/mL"}, {"measurement": "MIC90", "setting": "S. marcescens; Serratia marcescens", "value": 0.2, "unit": "µg/mL"}, {"measurement": "diarrhea and detectable toxicity", "setting": "OF-1 female mice; 5 days, any of the regimens tested (including 200 mg/kg q8h)", "value": "did not elicit any diarrhea or detectable toxicity"}, {"measurement": "MIC Range", "setting": "Yersinia spp.", "value": "0.2 to 0.8", "unit": "µg/mL"}, {"measurement": "MIC50", "setting": "Yersinia spp.; Yersinia", "value": 0.4, "unit": "µg/mL"}, {"measurement": "MIC90", "setting": "Yersinia spp.; Yersinia", "value": 0.8, "unit": "µg/mL"}, {"measurement": "half-life", "setting": "[1]; 40 mg/kg", "value": 10, "unit": "min"}, {"measurement": "distribution volume", "setting": "[1]; mouse, single intravenous 40-mg/kg dose", "value": 3.8, "unit": "L/kg"}, {"measurement": "survivors at day 21 postchallenge", "setting": "Y. pestis [2]", "value": "15 out of 15"}, {"measurement": "colonization of the lymph nodes, spleen, and blood relative to nontreated controls", "setting": "Y. pestis [2]; iv, 40 mg/kg", "value": "significantly (P < 0.02) lower colonization"}, {"measurement": "survival rate", "setting": "Y. pestis [2]; iv, 40 mg/kg", "value": "≥ 80", "unit": "%"}, {"measurement": "bacterial load in skin, lymph nodes, spleen, and blood of survivors", "setting": "Y. pestis [2]; iv, 200 mg/kg", "value": "sterile"}, {"measurement": "posttreatment relapse", "setting": "Y. pestis [2]; iv, 200 mg/kg", "value": "only one of the 15 animals"}, {"measurement": "MIC Range", "setting": "M. morganii", "value": "0.2 to 1.6", "unit": "µg/mL"}, {"measurement": "MIC50", "setting": "M. morganii; Morganella morganii", "value": 0.2, "unit": "µg/mL"}, {"measurement": "MIC90", "setting": "M. morganii; Morganella morganii", "value": 0.8, "unit": "µg/mL"}, {"measurement": "MIC Range", "setting": "C. koseri", "value": "0.1 to 1.6", "unit": "µg/mL"}, {"measurement": "MIC50", "setting": "C. koseri; Citrobacter koseri", "value": 0.4, "unit": "µg/mL"}, {"measurement": "MIC90", "setting": "C. koseri; Citrobacter koseri", "value": 0.4, "unit": "µg/mL"}, {"measurement": "MIC Range", "setting": "Enterobacter spp.", "value": "0.1 to 1.6", "unit": "µg/mL"}, {"measurement": "MIC50", "setting": "Enterobacter spp.; Enterobacter", "value": 0.2, "unit": "µg/mL"}, {"measurement": "MIC90", "setting": "Enterobacter spp.; Enterobacter", "value": 0.4, "unit": "µg/mL"}, {"measurement": "half-life at 1 µM", "setting": "[3]", "value": 44, "unit": "min"}, {"measurement": "microsomal CLint at 1 µM", "setting": "[3]", "value": 52, "unit": "µL/min/mg"}, {"measurement": "MIC Range", "setting": "C. freundii", "value": "0.2 to 0.4", "unit": "µg/mL"}, {"measurement": "MIC50", "setting": "C. freundii; Citrobacter freundii", "value": 0.2, "unit": "µg/mL"}, {"measurement": "MIC90", "setting": "C. freundii; Citrobacter freundii", "value": 0.4, "unit": "µg/mL"}, {"measurement": "type of antibacterial effect (kill curve)", "setting": "Y. pestis CO92", "value": "bacteriostatic effect"}, {"measurement": "MIC Range", "setting": "Shigella spp.", "value": "0.025 to 0.2", "unit": "µg/mL"}, {"measurement": "MIC50", "setting": "Shigella spp.; Shigella", "value": 0.05, "unit": "µg/mL"}, {"measurement": "MIC90", "setting": "Shigella spp.; Shigella", "value": 0.1, "unit": "µg/mL"}, {"measurement": "MIC90", "setting": "A. baumannii", "value": 3.2, "unit": "µg/mL"}, {"measurement": "MIC50", "setting": "A. baumannii; Acinetobacter baumannii", "value": 0.8, "unit": "µg/mL"}, {"measurement": "MIC90", "setting": "A. baumannii; Acinetobacter baumannii", "value": 3.2, "unit": "µg/mL"}, {"measurement": "MIC Range", "setting": "Salmonella spp", "value": "0.2 to 0.8", "unit": "µg/mL"}, {"measurement": "MIC50", "setting": "Salmonella spp; Salmonella", "value": 0.4, "unit": "µg/mL"}, {"measurement": "MIC90", "setting": "Salmonella spp; Salmonella", "value": 0.4, "unit": "µg/mL"}, {"measurement": "MIC Range", "setting": "P. mirabilis", "value": "0.2 to 0.8", "unit": "µg/mL"}, {"measurement": "MIC50", "setting": "P. mirabilis; Proteus mirabilis", "value": 0.2, "unit": "µg/mL"}, {"measurement": "MIC90", "setting": "P. mirabilis; Proteus mirabilis", "value": 0.4, "unit": "µg/mL"}, {"measurement": "MIC90", "setting": "Enterobacteriaceae", "value": "0.2 to 0.8", "unit": "µg/mL"}]}
{"smiles": "O=C(O)c1cn(C2CC2)c2cc(N3CCNCC3)c(F)cc2c1=O", "note": "[ciprofloxacin]", "values": [{"measurement": "MIC", "setting": "Y. pestis [4]", "value": 0.03, "unit": "µg/mL"}]}
{"smiles": "C[C@H]1c2cccc(O)c2C(=O)C2=C(O)[C@]3(O)C(=O)C(C(N)=O)=C(O)[C@@H](N(C)C)[C@@H]3[C@@H](O)[C@@H]21", "note": "[doxycycline, reference compound]", "values": [{"measurement": "MIC", "setting": "Y. pestis [4]", "value": 0.5, "unit": "µg/mL"}, {"measurement": "survivors at day 21 postchallenge", "setting": "Y. pestis [2]", "value": "14 out of 15"}, {"measurement": "bacterial load in skin, lymph nodes, spleen, and blood of survivors", "setting": "Y. pestis [2]; iv, 50 mg/kg", "value": "sterile"}]}
